We go through 24 compounds from patent US6506766B1 (Abbott Laboratories, priority 1998, dated 2003).

Like-named read-outs stand apart in the source and are kept apart here.

Assay [1] concerns the target T1, human glucocorticoid receptor-α [GRX] isoform (Homo sapiens, UniProt P04150).
T1 construct: host or cells: insect SF21 cells (baculovirus)
T1 sequence (P04150 1-777): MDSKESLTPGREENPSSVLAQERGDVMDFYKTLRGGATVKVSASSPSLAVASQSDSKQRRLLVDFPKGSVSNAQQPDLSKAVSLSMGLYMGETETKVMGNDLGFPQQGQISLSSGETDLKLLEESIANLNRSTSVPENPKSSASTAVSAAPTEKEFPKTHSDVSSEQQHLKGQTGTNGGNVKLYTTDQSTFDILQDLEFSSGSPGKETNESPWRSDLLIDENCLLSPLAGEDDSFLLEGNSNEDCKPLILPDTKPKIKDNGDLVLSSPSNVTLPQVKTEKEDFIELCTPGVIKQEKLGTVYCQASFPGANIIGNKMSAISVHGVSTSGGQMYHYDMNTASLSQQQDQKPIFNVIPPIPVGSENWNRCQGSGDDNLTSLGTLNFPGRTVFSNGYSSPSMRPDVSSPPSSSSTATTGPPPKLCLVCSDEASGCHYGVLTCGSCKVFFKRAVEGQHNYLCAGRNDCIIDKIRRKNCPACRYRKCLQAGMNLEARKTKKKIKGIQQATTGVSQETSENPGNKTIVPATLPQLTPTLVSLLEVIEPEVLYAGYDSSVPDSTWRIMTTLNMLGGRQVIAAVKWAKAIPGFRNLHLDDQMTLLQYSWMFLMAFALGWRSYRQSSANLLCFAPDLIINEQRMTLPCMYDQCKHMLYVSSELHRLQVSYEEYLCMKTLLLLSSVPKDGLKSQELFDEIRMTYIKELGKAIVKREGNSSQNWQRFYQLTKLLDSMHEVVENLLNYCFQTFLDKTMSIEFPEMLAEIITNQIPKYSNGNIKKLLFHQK
The experiment in a line: Radioligand binding with human glucocorticoid receptor cytosol ([3H]-dexamethasone competition).

The target of assay [2] is T2, human progesterone receptor-A [PRA] isoform (Homo sapiens, UniProt P06401).
T2 construct: host or cells: insect SF21 cells (baculovirus)
T2 sequence (P06401 1-769 isoform P06401-2): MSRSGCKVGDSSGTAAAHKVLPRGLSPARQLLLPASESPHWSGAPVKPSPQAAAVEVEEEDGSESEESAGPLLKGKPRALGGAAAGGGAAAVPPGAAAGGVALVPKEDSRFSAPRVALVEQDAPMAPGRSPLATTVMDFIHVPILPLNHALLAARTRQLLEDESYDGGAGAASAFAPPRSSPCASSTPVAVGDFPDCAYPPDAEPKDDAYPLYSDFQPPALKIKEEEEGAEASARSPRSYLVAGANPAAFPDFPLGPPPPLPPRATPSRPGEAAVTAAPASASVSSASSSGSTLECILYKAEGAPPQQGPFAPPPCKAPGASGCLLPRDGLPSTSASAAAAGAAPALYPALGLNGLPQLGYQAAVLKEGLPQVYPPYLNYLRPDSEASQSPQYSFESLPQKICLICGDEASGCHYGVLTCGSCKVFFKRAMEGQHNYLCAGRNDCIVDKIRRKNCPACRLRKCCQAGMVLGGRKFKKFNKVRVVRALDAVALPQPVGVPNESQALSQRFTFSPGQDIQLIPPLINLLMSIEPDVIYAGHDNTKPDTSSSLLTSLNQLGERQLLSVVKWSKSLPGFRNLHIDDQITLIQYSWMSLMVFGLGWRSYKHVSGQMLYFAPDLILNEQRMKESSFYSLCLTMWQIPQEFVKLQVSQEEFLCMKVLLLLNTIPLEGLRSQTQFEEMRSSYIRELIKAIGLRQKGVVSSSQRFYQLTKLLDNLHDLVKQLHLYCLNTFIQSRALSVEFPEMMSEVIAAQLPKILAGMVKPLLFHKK
The assay can be described thus: Radioligand binding with human progesterone receptor cytosol ([3H]-progesterone competition).

The mark [3] stands for this setting: GRX cytosol expressed in insect SF21 cells, [3H]-Dex ~0.9 nM, 4° C. overnight, Ki by Cheng-Prusoff, KL ~[…], read-out: Ki (nM) GR.
The mark [4] stands for this setting: PRA cytosol expressed in insect SF21 cells, [3H]Prog ~0.8 nM, 4° C. overnight, Ki by Cheng-Prusoff, KL ~4.5 nM, read-out: Ki (nM) PR.

For the compound `COc1c(O)ccc2c1-c1ccc3c(c1C(c1cc(Cl)cc(Cl)c1)O2)C(C)=CC(C)(C)N3` (stereo not drawn) [Example 416, 2,5-Dihydro-9-hydroxy-10-methoxy-2,2,4-trimethyl-5-(3,5-dichlorophenyl)-1H-[1]benzopyrano[3,4-f]quinoline], the results for the Ki in assay [1] (setting [3]) and in assay [2] (setting [4]) were 3.1 nM and 394 nM, respectively.

As for `COc1cccc2c1-c1ccc3c(c1C(c1cc(C)cc(-c4ccco4)c1)O2)C(C)=CC(C)(C)N3` (stereo not drawn) [Example 16, 5-[3-(2-Furanyl)-5-methylphenyl]-2,5-dihydro-10-methoxy-2,2,4-trimethyl-1H-[1]benzopyrano[3,4-f]quinoline], the inhibition constant Ki is 8 nM in assay [1] (setting [3]) and ≥ 10000 nM in assay [2] (setting [4]).

`COc1cccc2c1-c1ccc3c(c1[C@H]([C@H]1C=C(CO)CCC1)O2)C(C)=CC(C)(C)N3` [Example 155]: the Ki in assay [1] (setting [3]) is 0.86 nM; in assay [2] (setting [4]), ≥ 10000 nM.

Take `COc1cccc2c1-c1ccc3c(c1C(c1ccc(Cl)cc1)O2)C(C)=CC(C)(C)N3` (stereo not drawn) [Example 28, 5-(4-Chlorophenyl)-2,5-dihydro-10-methoxy-2,2,4-trimethyl-1H-[1]benzopyrano[3,4-f]quinoline]: the inhibitory constant (Ki) in assay [1] (setting [3]) was determined as 4.7 nM; in assay [2] (setting [4]), 3270 nM.

Regarding “2,5-Dihydro-9-hydroxy-10-methoxy-2,2,4-trimethyl-5-((2-fluorophenyl)methyl)-1H-[1]benzopyrano[3,4-f]quinoline [Example 385]”, the Ki in assay [1] (read-out: Ki (nM) GR) was determined as 0.9 nM; in assay [2] (setting [4]), 170 nM.

In the case of `C=CCC1Oc2cccc(O)c2-c2ccc3c(c21)C(C)=CC(C)(C)N3` (stereo not drawn) [Example 82, 2,5-Dihydro-2,2,4-trimethyl-5-(2-propenyl)-1H-1benzopyrano[3,4-f]quinolin-10-ol], the results for the inhibitory constant (Ki) in assay [1] (setting [3]) and in assay [2] (setting [4]) were 22.9 nM and 327 nM, respectively.

Take `COC(=S)Oc1cccc(C2Oc3cccc(OC)c3-c3ccc4c(c32)C(C)=CC(C)(C)N4)c1` (stereo not drawn) [Example 104, O-[3-(2,5-Dihydro-10-methoxy-2,2,4-trimethyl-1H-[1]benzopyrano[3,4-f]quinolin-5-yl)phenyl]methylcarbonothioate]: the results for the inhibition constant (Ki) in assay [1] (setting [3]) and in assay [2] (setting [4]) were 8.9 nM and ≥ 10000 nM, respectively.

With `COc1c(O)ccc2c1-c1ccc3c(c1[C@H]([C@H]1C=CCCCC1)O2)C(C)=CC(C)(C)N3` [Example 247, (−)(5S,3′R)2,5-Dihydro-9-hydroxy-10-methoxy-2,2,4-trimethyl-5-(3-cycloheptenyl)-1H-[1]benzopyrano[3,4-f]quinoline], the inhibitory constant (Ki) in assay [1] (setting [3]) came out at 0.86 nM; in assay [2] (setting [4]) it was 195 nM.

With “2,5-Dihydro-9-hydroxy-10-methoxy-5-propyl-2,2,4-trimethyl-1H-[1]benzopyrano[3,4-f]quinoline [Example 245]”, the results for the Ki in assay [1] (read-out: Ki (nM) GR) and in assay [2] (read-out: Ki (nM) PR) were 0.95 nM and 119 nM, respectively.

For the compound `C=CCC1Oc2cccc(OC)c2-c2ccc3c(c21)C(C)=CC(C)(C)N3` (single isomer, unassigned; (-)) [Example 36, (−)2,5-Dihydro-10-methoxy-2,2,4-trimethyl-5-(2-propenyl)-1H-[1]benzopyrano[3,4-f]quinoline], the Ki in assay [1] (setting [3]) was determined as 1.4 nM; in assay [2] (setting [4]) it was 1700 nM.

For the compound `COc1c(OC(=O)N(C)C)ccc2c1-c1ccc3c(c1C(c1ccccc1OC(=O)N(C)C)O2)C(C)=CC(C)(C)N3` (stereo not drawn) [Example 403, 2,5-Dihydro-9-N,N-dimethylcarbamoyloxy-10-methoxy-2,2,4-trimethyl-5-([2-N,N-dimethylcarbamoyloxy]phenyl)-1H-[1]benzopyrano[3,4-f]quinoline], the inhibitory constant (Ki) in assay [1] (Ki (nM) GR) was 131 nM; in assay [2] (Ki (nM) PR), ≥ 10000 nM.

On to `COC(=O)CC1Oc2cccc(OC)c2-c2ccc3c(c21)C(C)=CC(C)(C)N3` (stereo not drawn) [Example 46, Methyl 2,5-Dihydro-10-methoxy-2,2,4-trimethyl-1H-[1]benzopyrano[3,4-f]quinoline-5-acetate], for which the inhibitory constant (Ki) in assay [1] (setting [3]) came to 2.7 nM; in assay [2] (setting [4]) it was 3440 nM.

For `C=CCC1Oc2ccc(CO)c(Cl)c2-c2ccc3c(c21)C(C)=CC(C)(C)N3` (stereo not drawn) [Example 410, 2,5-Dihydro-9-hydroxymethyl-10-chloro-2,2,4-trimethyl-5-allyl-1H-[1]benzopyrano[3,4-f]quinoline], the inhibition constant (Ki) in assay [1] (setting [3]) is 1.1 nM; in assay [2] (setting [4]) it was 25.7 nM.

Regarding `C=C=CC1Oc2ccc(O)c(OC)c2-c2ccc3c(c21)C(C)=CC(C)(C)N3` (stereo not drawn) [Example 389, 2,5-Dihydro-9-hydroxy-10-methoxy-2,2,4-trimethyl-5-allenyl-1H-[1]benzopyrano[3,4-f]quinoline], the inhibition constant (Ki) in assay [1] (setting [3]) is 0.58 nM; in assay [2] (setting [4]), 27.5 nM.

On to `COc1cccc2c1-c1ccc3c(c1C(c1cccnc1)O2)C(C)=CC(C)(C)N3` (stereo not drawn) [Example 214, 2,5-Dihydro-10-methoxy-5-(3-pyridyl)-2,2,4-trimethyl-1H-[1]benzopyrano[3,4-f]quinoline], for which the Ki in assay [1] (setting [3]) is 5.7 nM; in assay [2] (setting [4]) it was ≥ 10000 nM.

As for `COc1c(O)ccc2c1-c1ccc3c(c1C(c1cccc(C(F)(F)F)c1)O2)C(C)=CC(C)(C)N3` (stereo not drawn) [Example 256, 2,5-Dihydro-9-hydroxy-10-methoxy-2,2,4-trimethyl-5-(3-trifluoromethylphenyl)-1H-[1]benzopyrano[3,4-f]quinoline], the inhibitory constant (Ki) was found to be 3.8 nM in assay [1] (setting [3]) and 266 nM in assay [2] (setting [4]).

With `COc1cccc2c1-c1ccc3c(c1[C@@H]([C@H]1C=C(CN(C)C)CCC1)O2)C(C)=CC(C)(C)N3` (relative stereo) [Example 165], the Ki in assay [1] (setting [3]) is 14 nM; in assay [2] (setting [4]) it was ≥ 10000 nM.

For `COc1c(Cl)ccc2c1-c1ccc3c(c1C(c1ccccc1)O2)C(C)=CC(C)(C)N3` (stereo not drawn) [Example 229, 9-Chloro-10-methoxy-5-phenyl-2,2,4-trimethyl-2,5-dihydro-1H[1]benzopyrano[3,4-f]quinoline], the inhibition constant Ki came to 34.7 nM in assay [1] (setting [3]) and 1340 nM in assay [2] (setting [4]).

For `COC(=O)C1=C[C@@H]([C@@H]2Oc3ccc(O)c(OC)c3-c3ccc4c(c32)C(C)=CC(C)(C)N4)CC1` (racemic) [Example 271, (+/−)2,5-Dihydro-9-hydroxy-10-methoxy-2,2,4-trimethyl-5(S)-(3(S)-1-methylcarboxylatecyclopenten-3-yl)-1H-[1]benzopyrano[3,4-f]quinoline], the Ki worked out at 0.82 nM in assay [1] (setting [3]) and 2290 nM in assay [2] (setting [4]).

For “9,10-Dimethoxy-5-[3-cyclohexenyl]-methoxy-2,2,4-trimethyl-2,5-dihydro-1H-[1]benzopyrano[3,4-f]quinoline [Example 291]”, the inhibition constant Ki in assay [1] (read-out: Ki (nM) GR) amounted to 8.1 nM; in assay [2] (read-out: Ki (nM) PR), 592 nM.

Regarding `CCOC(=O)c1cccc(C2Oc3cccc(OC)c3-c3ccc4c(c32)C(C)=CC(C)(C)N4)c1` (stereo not drawn) [Example 107], the inhibition constant (Ki) in assay [1] (setting [3]) was 215 nM; in assay [2] (setting [4]) it was > 10000 nM.

For `COc1cccc2c1-c1ccc3c(c1C(c1cccc(C)c1)O2)C(C)=CC(C)(C)N3` (stereo not drawn) [Example 24, 2,5-Dihydro-10-methoxy-2,2,4-trimethyl-5-(3-methylphenyl)-1H-[1]benzopyrano[3,4-f]quinoline], the inhibitory constant (Ki) in assay [1] (setting [3]) was 3.5 nM; in assay [2] (setting [4]) it was 14800 nM.

On to `C/C=C\C1Oc2cccc(OC)c2-c2ccc3c(c21)C(C)=CC(C)(C)N3` (stereo not drawn) [Example 180, (Z)-2,5-Dihydro-10-methoxy-5-(1-propenyl)-2,2,4-trimethyl-1H-[1]benzopyrano[3,4-f]quinoline], for which the values for the Ki in assay [1] (setting [3]) and in assay [2] (setting [4]) were 18 nM and 733 nM, respectively.

`COc1cccc2c1-c1ccc3c(c1C(c1cccc(OC(C)=O)c1)O2)C(C)=CC(C)(C)N3` (stereo not drawn) [Example 12, 3-(2,5-Dihydro-10-methoxy-2,2,4-trimethyl-1H-[1]benzopyrano[3,4-f]quinolin-5-yl)phenol, Acetate (Ester)]: the inhibition constant Ki in assay [1] (setting [3]) is 8.6 nM; in assay [2] (setting [4]), ≥ 10000 nM.

The Ki is a measure of affinity in units of concentration, obtained from inhibition or displacement.
